The source of these data is ChEMBL document CHEMBL5724914, “Linking interpersonal differences in gut microbiota composition and drug biotransformation activity” (2024).

The nature of data set [1]: The drug is tested on Z-017 corresponding to mouse gut metagenome with ENA study accession number: PRJEB37062 and ENA sample accession number: ERS12561816 for biotransformation under anaerobic condition. The drug concentrations were measured over 9 timepoints collected between 0 and 24 hours of incubation by liquid-chromatography-coupled mass spectrometry (LC–MS). The following applies: 2 µM.

A short description of data set [2]: The drug is tested on Z-007 corresponding to rat gut metagenome with ENA study accession number: PRJEB37062 and ENA sample accession number: ERS12561807 for biotransformation under anaerobic condition. The drug concentrations were measured over 9 timepoints collected between 0 and 24 hours of incubation by liquid-chromatography-coupled mass spectrometry (LC–MS). The following applies: 2 µM.

Data set [3] can be described thus: The drug is tested on Z-003 corresponding to pig gut metagenome with ENA study accession number: PRJEB37062 and ENA sample accession number: ERS12561803 for biotransformation under anaerobic condition. The drug concentrations were measured over 9 timepoints collected between 0 and 24 hours of incubation by liquid-chromatography-coupled mass spectrometry (LC–MS). The following applies: 2 µM.

Data set [4] in a line: The drug is tested on Z-002 corresponding to rabbit gut metagenome with ENA study accession number: PRJEB37062 and ENA sample accession number: ERS12561802 for biotransformation under anaerobic condition. The drug concentrations were measured over 9 timepoints collected between 0 and 24 hours of incubation by liquid-chromatography-coupled mass spectrometry (LC–MS). The following applies: 2 µM.

Data set [5] is described as follows: The drug is tested on WLS-240 corresponding to human gut metagenome with ENA study accession number: PRJEB37062 and ENA sample accession number: ERS12561773 for biotransformation under anaerobic condition. The drug concentrations were measured over 9 timepoints collected between 0 and 24 hours of incubation by liquid-chromatography-coupled mass spectrometry (LC–MS). As to conditions: 2 µM.

Data set [6] in a line: The drug is tested on WLS-098 corresponding to human gut metagenome with ENA study accession number: PRJEB37062 and ENA sample accession number: ERS12561754 for biotransformation under anaerobic condition. The drug concentrations were measured over 9 timepoints collected between 0 and 24 hours of incubation by liquid-chromatography-coupled mass spectrometry (LC–MS). The following applies: 2 µM.

Data set [7] can be described thus: The drug is tested on WLS-073 corresponding to human gut metagenome with ENA study accession number: PRJEB37062 and ENA sample accession number: ERS12561749 for biotransformation under anaerobic condition. The drug concentrations were measured over 9 timepoints collected between 0 and 24 hours of incubation by liquid-chromatography-coupled mass spectrometry (LC–MS). As to conditions: 2 µM.

Data set [8] is described as follows: The drug is tested on WLS-069 corresponding to human gut metagenome with ENA study accession number: PRJEB37062 and ENA sample accession number: ERS12561748 for biotransformation under anaerobic condition. The drug concentrations were measured over 9 timepoints collected between 0 and 24 hours of incubation by liquid-chromatography-coupled mass spectrometry (LC–MS). As to conditions: 2 µM.

The conditions of data set [9]: human gut metagenome, 24 h, 2 µM.
For data set [10] the following is noted: human gut metagenome, 24 h, 2 µM. This is another data set of the same source.
The conditions of data set [11]: human gut metagenome, 24 h, 2 µM. The source holds these as a separate data set.
The conditions of data set [12]: human gut metagenome, 24 h, 2 µM. The source holds these as a separate data set.
For data set [13] the following is noted: human gut metagenome, 24 h, 2 µM. The source holds these as a separate data set.
For data set [14] the following is noted: human gut metagenome, 24 h, 2 µM. The source holds these as a separate data set.
The conditions of data set [15]: human gut metagenome, 24 h, 2 µM. The source holds these as a separate data set.
For data set [16] the following is noted: human gut metagenome, 24 h, 2 µM. This is another data set of the same source.
For data set [17] the following is noted: human gut metagenome, 24 h, 2 µM. The source holds these as a separate data set.
The conditions of data set [18]: human gut metagenome, 24 h, 2 µM. This is another data set of the same source.
The conditions of data set [19]: human gut metagenome, 24 h, 2 µM. The source holds these as a separate data set.
The nature of data set [20]: The drug is tested on Z-019 corresponding to rat gut metagenome with ENA study accession number: PRJEB37062 and ENA sample accession number: ERS12561818 for biotransformation under anaerobic condition. The drug concentrations were measured over 9 timepoints collected between 0 and 24 hours of incubation by liquid-chromatography-coupled mass spectrometry (LC–MS). As to conditions: 2 µM.

SMILES strings stand for the structures.
Further: call rule not given here.

On to `CC(C)(C)NC(=O)[C@H]1CC[C@H]2[C@@H]3CC[C@H]4NC(=O)C=C[C@]4(C)[C@H]3CC[C@]12C` [FINASTERIDE], for which the “Bacterial Biotransformation” value was “Compound NOT metabolized” in [1]; “Compound NOT metabolized” in data set [2]; “Compound metabolized” in data set [3]; “Compound metabolized” in data set [4]; “Compound metabolized” in [5]; “Compound metabolized” in data set [6]. The “Bacterial Biotransformation” value in data set [7], in data set [8], in data set [9], in data set [10], in data set [11] and in data set [12] was “Compound metabolized” throughout. The “Bacterial Biotransformation” value in data set [13], in [14], in data set [15], in data set [16], in data set [17] and in [18] was “Compound metabolized” throughout. In [19], the “Bacterial Biotransformation” value is reported as “Compound metabolized”.
For `COc1cc2nc(N3CCN(C(=O)C4COc5ccccc5O4)CC3)nc(N)c2cc1OC.CS(=O)(=O)O` (configuration not stated) [DOXAZOSIN MESYLATE], the “Bacterial Biotransformation” value in data set [20] is “Compound NOT metabolized”; in [1], “Compound NOT metabolized”; in data set [2] it was “Compound NOT metabolized”; in data set [3], “Compound NOT metabolized”; in data set [4], “Compound NOT metabolized”; in [5], “Compound metabolized”. For the same compound, the “Bacterial Biotransformation” value in data set [6] is on record as “Compound metabolized”; in data set [8], “Compound metabolized”; in [9], “Compound metabolized”; in data set [10] it was “Compound NOT metabolized”; in data set [11] it was “Compound metabolized”; in [12], “Compound metabolized”. Also, the “Bacterial Biotransformation” value in [13], in [14], in data set [15], in data set [16], in data set [17] and in [19] was “Compound metabolized” throughout.
`CCOC(=O)[C@H](CCc1ccccc1)N[C@@H](C)C(=O)N1CCC[C@H]1C(=O)O.O=C(O)/C=C\C(=O)O` [ENALAPRIL MALEATE]: the “Bacterial Biotransformation” value in [2] is listed as “Compound NOT metabolized”; in data set [3], “Compound NOT metabolized”; in [4] it was “Compound metabolized”; in [5] it was “Compound NOT metabolized”; in [6], “Compound NOT metabolized”; in [7], “Compound NOT metabolized”. Besides, the “Bacterial Biotransformation” value in data set [8], in [9], in [10], in data set [11], in data set [12] and in data set [13] was “Compound NOT metabolized” throughout. In addition, the “Bacterial Biotransformation” value in data set [14], in data set [15], in data set [16], in [17], in [18] and in [19] was “Compound NOT metabolized” throughout.
With `CSc1ccc2c(c1)C(N1CCN(C)CC1)Cc1ccccc1S2.O=C(O)/C=C\C(=O)O` (configuration not stated), the “Bacterial Biotransformation” value in [2] is “Compound metabolized”; in data set [3] it was “Compound metabolized”; in [4], “Compound metabolized”; in data set [5], “Compound NOT metabolized”; in data set [6], “Compound metabolized”; in [9], “Compound NOT metabolized”. In addition, the “Bacterial Biotransformation” value in data set [10], in data set [12], in data set [13], in [14], in data set [15] and in [16] was “Compound NOT metabolized” throughout. Moreover, the “Bacterial Biotransformation” value in [17] is “Compound metabolized”; in data set [18], “Compound NOT metabolized”; in data set [19], “Compound metabolized”.
In the case of `C#C[C@]1(OC(C)=O)CC[C@H]2[C@@H]3CCC4=CC(=O)CC[C@@H]4[C@H]3CC[C@@]21C` [NORETHINDRONE ACETATE], the “Bacterial Biotransformation” value in [20], in [1], in data set [3], in [4], in data set [5] and in data set [6] was “Compound metabolized” each time. Further, the “Bacterial Biotransformation” value in [7], in data set [8], in data set [11], in [12], in [13] and in data set [14] was “Compound metabolized” each time. Also, the “Bacterial Biotransformation” value in data set [16] is listed as “Compound metabolized”; in data set [17], “Compound NOT metabolized”; in data set [18], “Compound metabolized”; in data set [19] it was “Compound NOT metabolized”.
`CN1C[C@H](C(=O)N[C@]2(C)O[C@@]3(O)[C@@H]4CCCN4C(=O)[C@H](Cc4ccccc4)N3C2=O)C[C@@H]2c3cccc4[nH]cc(c34)C[C@H]21.CS(=O)(=O)O` [DIHYDROERGOTAMINE MESYLATE]: the “Bacterial Biotransformation” value was “Compound NOT metabolized” in [20]; “Compound NOT metabolized” in data set [1]; “Compound NOT metabolized” in data set [2]; “Compound NOT metabolized” in data set [3]; “Compound metabolized” in data set [4].
Regarding `Cc1ccc(NC(=O)c2ccc(CN3CCN(C)CC3)cc2)cc1Nc1nccc(-c2cccnc2)n1` [IMATINIB], the “Bacterial Biotransformation” value in data set [1], in [2], in data set [3] and in data set [4] was “Compound NOT metabolized” each time.
With `CN1CCC[C@@H]1CCO[C@](C)(c1ccccc1)c1ccc(Cl)cc1.O=C(O)/C=C/C(=O)O` [CLEMASTINE FUMARATE], the “Bacterial Biotransformation” value in [2] was “Compound NOT metabolized”; in [3] it was “Compound NOT metabolized”; in data set [4], “Compound NOT metabolized”; in [5], “Compound NOT metabolized”; in data set [6], “Compound metabolized”; in data set [7], “Compound NOT metabolized”. Further, the “Bacterial Biotransformation” value in [8] is “Compound metabolized”; in [9] it was “Compound metabolized”; in data set [10], “Compound metabolized”; in data set [11] it was “Compound metabolized”; in data set [12], “Compound NOT metabolized”; in data set [13], “Compound metabolized”. Besides, the “Bacterial Biotransformation” value is reported as “Compound NOT metabolized” in [14]; “Compound NOT metabolized” in data set [15]; “Compound NOT metabolized” in data set [16]; “Compound metabolized” in data set [17]; “Compound metabolized” in data set [18].
